Experimental data as given in article PMC4965013, “Open Source Drug Discovery with the Malaria Box Compound Collection for Neglected Diseases and Beyond” (PLoS Pathogens, 2016).

Columns and labels:
P. falciparum = test: EC50 listed in S2 Table Metabolomics (used to set the concentration tested); format: cell-based; conditions: Plasmodium falciparum; EC50 used for Factor_XEC50 in metabolomics; read-out: EC50_nM
[1] = system: P. falciparum 3D7 trophozoites; test: Metabolomic fingerprint profiling LC-MS; format: cell-based, Plasmodium falciparum; set-up: UDP-D-glucose / ADP-D-glucose: unit not given here
[2] = metabolite level change after treatment

EC50 (P. falciparum): 118 nM
SMILES: CCOC(=O)c1ccc2nc(-c3ccccc3)cc(O)c2c1 [MMV006457]
Acetyllysine ([1]; S2 Table Metabolomics, metabolite Acetyllysine): -0.3384
N-acetyl-L-ornithine ([1]; S2 Table Metabolomics, metabolite N-acetyl-L-ornithine): -0.3139
N-carbamoyl-L-aspartate ([1]; S2 Table Metabolomics, metabolite N-carbamoyl-L-aspartate): 4.351
NADPH ([1]; S2 Table Metabolomics, metabolite NADPH): 0.6352
dAMP ([1]; S2 Table Metabolomics, metabolite dAMP): -0.4724
dCMP ([1]; S2 Table Metabolomics, metabolite dCMP): -0.3312
dTDP ([1]; S2 Table Metabolomics, metabolite dTDP): -1.515
dTMP ([1]; S2 Table Metabolomics, metabolite dTMP): -1.363
dTTP ([1]; S2 Table Metabolomics, metabolite dTTP): -1.304
dihydroorotate ([1]; S2 Table Metabolomics, metabolite dihydroorotate): 4.958
orotate ([1]; S2 Table Metabolomics, metabolite orotate): -1.367
DLH ([1]; S2 Table Metabolomics, peptide DLH): -0.4882
DLS/SDL/SID ([1]; S2 Table Metabolomics, peptide DLS/SDL/SID): -0.4763
PD ([1]; S2 Table Metabolomics, peptide PD): 0.2786
PEE ([1]; S2 Table Metabolomics, peptide PEE): -0.4235
PVNF ([1]; S2 Table Metabolomics, peptide PVNF): -0.7922
3-phosphoglycerate ([1]; metabolite 3-phosphoglycerate, S2 Table Metabolomics): 0.07595
ADP-D-glucose ([1]; metabolite ADP-D-glucose, S2 Table Metabolomics): 0.02112
ATP ([1]; metabolite ATP, S2 Table Metabolomics): 0.06279
CDP ([1]; metabolite CDP, S2 Table Metabolomics, change in metabolite level after compound treatment): -1.282
D-sedoheptulose-1/7-phosphate ([1]; metabolite D-sedoheptulose-1/7-phosphate, S2 Table Metabolomics, change in metabolite level after compound treatment): -0.2959
FAD ([1]; metabolite FAD, S2 Table Metabolomics): 0.202
GMP ([1]; metabolite GMP, S2 Table Metabolomics, change in metabolite level after compound treatment): 0.5528
NAD+ ([1]; metabolite NAD+, S2 Table Metabolomics): 0.1474
NADP+ ([1]; metabolite NADP+, S2 Table Metabolomics): -0.1781
Octoluse Bisphosphate ([1]; metabolite Octoluse Bisphosphate, S2 Table Metabolomics, change in metabolite level after compound treatment): -0.2401
Pyroglutamic acid ([1]; metabolite Pyroglutamic acid, S2 Table Metabolomics): 0.01503
UDP-D-glucose ([1]; metabolite UDP-D-glucose, S2 Table Metabolomics): 0.02564
UDP-D-glucuronate ([1]; metabolite UDP-D-glucuronate, S2 Table Metabolomics): -0.1377
UDP-N-acetyl-glucosamine ([1]; metabolite UDP-N-acetyl-glucosamine, S2 Table Metabolomics): -0.1506
UDP ([1]; metabolite UDP, S2 Table Metabolomics, change in metabolite level after compound treatment): -1.814
UMP ([1]; metabolite UMP, S2 Table Metabolomics, change in metabolite level after compound treatment): -1.819
UTP ([1]; metabolite UTP, S2 Table Metabolomics, change in metabolite level after compound treatment): -1.644
a-ketoglutarate ([1]; metabolite a-ketoglutarate, S2 Table Metabolomics): -0.2281
citrate/isocitrate ([1]; metabolite citrate/isocitrate, S2 Table Metabolomics, change in metabolite level after compound treatment): -0.877
cytidine ([1]; metabolite cytidine, S2 Table Metabolomics): 0.9143
dATP ([1]; metabolite dATP, S2 Table Metabolomics): 0.2755
dGMP/AMP ([1]; metabolite dGMP/AMP, S2 Table Metabolomics, change in metabolite level after compound treatment): -0.2048
fumarate ([1]; metabolite fumarate, S2 Table Metabolomics, change in metabolite level after compound treatment): 0.4222
glucose-1/6-phosphate ([1]; metabolite glucose-1/6-phosphate, S2 Table Metabolomics, change in metabolite level after compound treatment): 0.1449
glycerate ([1]; metabolite glycerate, S2 Table Metabolomics, change in metabolite level after compound treatment): -0.03038
guanine ([1]; metabolite guanine, S2 Table Metabolomics, change in metabolite level after compound treatment): 0.7811
guanosine ([1]; metabolite guanosine, S2 Table Metabolomics, change in metabolite level after compound treatment): 0.4264
hypoxanthine ([1]; metabolite hypoxanthine, S2 Table Metabolomics): 0.2443
indole ([1]; metabolite indole, S2 Table Metabolomics): 0.3097
inosine ([1]; metabolite inosine, S2 Table Metabolomics, change in metabolite level after compound treatment): 0.319
2_3-Diphosphoglyceric acid [1, 2]: -0.1036
4-phosphopantothenate [1, 2]: -0.4551
6-phospho-D-gluconate [1, 2]: 0.1425
FMN [1, 2]: -0.04566
IMP [1, 2]: 0.4558
Pyrophosphate [1, 2]: 0.1188
Sedoheptoluse bisphosphate [1, 2]: -0.2455
cyclic-AMP [1, 2]: -0.04029
glutathione disulfide [1, 2]: 0.1448
lactate [1, 2]: 0.2927
myo-inositol [1, 2]: -0.1285
nicotinate ([1]; metabolite nicotinate, S2 Table Metabolomics): 0.07641
ornithine ([1]; metabolite ornithine, S2 Table Metabolomics): 0.3647
phosphoenolpyruvate ([1]; metabolite phosphoenolpyruvate, S2 Table Metabolomics): -0.1372
pyruvate ([1]; metabolite pyruvate, S2 Table Metabolomics, change in metabolite level after compound treatment): -0.1462
ribose-phosphate ([1]; metabolite ribose-phosphate, S2 Table Metabolomics): 0.3187
sarcosine/alanine ([1]; metabolite sarcosine/alanine, S2 Table Metabolomics, change in metabolite level after compound treatment): 0.6115
sn-glycerol-3-phosphate ([1]; metabolite sn-glycerol-3-phosphate, S2 Table Metabolomics): 0.3451
succinate/methylmalonic acid ([1]; metabolite succinate/methylmalonic acid, S2 Table Metabolomics, change in metabolite level after compound treatment): -0.4755
uridine ([1]; metabolite uridine, S2 Table Metabolomics, change in metabolite level after compound treatment): -0.2838
xanthosine ([1]; metabolite xanthosine, S2 Table Metabolomics, change in metabolite level after compound treatment): -0.0194
